Read-outs that look alike come from different tables or passages of the source.
Tests used:
FGF-R4 ECD [1] = biological target: T1, FGF-R4 ECD (Homo sapiens, UniProt P22455); test: multi-concentration BLI of purified peptides; format: binding; details: purified trimer-18 library peptides
T1 construct: DNA constructs for the extracellular domain (ECD) of human FGF-; HPC4 (C); made in house; host or cells: HEK 293-6E
T1 sequence (P22455 22-369 limits assumed): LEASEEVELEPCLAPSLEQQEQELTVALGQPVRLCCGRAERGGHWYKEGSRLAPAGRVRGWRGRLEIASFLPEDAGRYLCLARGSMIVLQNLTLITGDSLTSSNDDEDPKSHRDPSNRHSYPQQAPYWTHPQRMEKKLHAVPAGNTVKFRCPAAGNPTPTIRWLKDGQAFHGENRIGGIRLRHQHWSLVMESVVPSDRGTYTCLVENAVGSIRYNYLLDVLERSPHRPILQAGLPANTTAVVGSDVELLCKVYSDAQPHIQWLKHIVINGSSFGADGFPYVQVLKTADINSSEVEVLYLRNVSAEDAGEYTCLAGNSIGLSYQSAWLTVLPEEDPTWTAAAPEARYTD
Method: (§1) KD affinity binding measurements were obtained by biolayer interferometry (BLI) instruments (Fortebio Octet HTX, or Sartorius Octet RH16 using either 8 or 16 channel mode.
(§2) For single concentration binding experiments, 50 μM peptide stocks in folding buffer were diluted 1:50 in mRNA display selection buffer (PBS pH7.4 supplemented with 0.05% Tween-20 and 0.01% BSA) in either a 96 well black plate, or a 384 well tilted bottom microplate (ForteBio). Biotinylated FGF-R protein was loaded onto Streptavidin-functionalised biosensors (ForteBio) and immersed into ~1 μM peptide to obtain association kinetics curves. Dissociation kinetics curves were obtained by subsequent immersion of ligand-associated loaded sensors into a 1:50 dilution of folding buffer in mRNA display selection buffer. Fitted KD data was adjusted for concentration as determined by UPLC-CAD.
(§3) For accurate multi-concentration KD determination, dilution series of each peptide were made, and association and dissociation kinetics curves were obtained as above for each concentration to fit a multi-point KD binding model. Data collection and analysis was performed using the Octet Instrument Control […]
(§4) concentration assay kinetics curves shown in supplementary Figure S 19-24.

FGF-R1C ECD [2] = biological target: T2, FGF-R1C ECD (Homo sapiens, UniProt P11362); test: biochemical; format: binding; design: DNA constructs for the extracellular domain (ECD) of human FGF-; HPC4 (C); made in house; host or cells: HEK 293-6E
T2 sequence (P11362 22-376 limits assumed): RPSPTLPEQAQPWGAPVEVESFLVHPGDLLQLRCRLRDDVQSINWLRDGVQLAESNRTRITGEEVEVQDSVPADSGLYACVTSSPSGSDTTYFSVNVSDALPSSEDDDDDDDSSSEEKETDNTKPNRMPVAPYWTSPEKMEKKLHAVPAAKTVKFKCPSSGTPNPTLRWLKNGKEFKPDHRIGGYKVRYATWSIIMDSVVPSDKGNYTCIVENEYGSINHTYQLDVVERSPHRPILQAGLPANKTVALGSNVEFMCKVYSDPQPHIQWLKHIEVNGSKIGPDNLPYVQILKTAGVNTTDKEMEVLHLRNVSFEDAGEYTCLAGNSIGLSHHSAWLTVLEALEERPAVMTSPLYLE
Method in brief: (§5)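 Streptavidin biosensors carrying biotinylated FGF receptor ECD were immersed in peptide (~1 μM for crude single-point runs, a concentration series for purified peptides) and then in peptide-free buffer. KD was obtained by fitting the BLI association and dissociation curves.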

FGF-R3C ECD [3] = biological target: T3, FGF-R3C ECD (Homo sapiens, UniProt P22607); test: biochemical; format: binding; design: DNA constructs for the extracellular domain (ECD) of human FGF-; HPC4 (C); made in house; host or cells: HEK 293-6E
T3 sequence (P22607 23-375 limits assumed): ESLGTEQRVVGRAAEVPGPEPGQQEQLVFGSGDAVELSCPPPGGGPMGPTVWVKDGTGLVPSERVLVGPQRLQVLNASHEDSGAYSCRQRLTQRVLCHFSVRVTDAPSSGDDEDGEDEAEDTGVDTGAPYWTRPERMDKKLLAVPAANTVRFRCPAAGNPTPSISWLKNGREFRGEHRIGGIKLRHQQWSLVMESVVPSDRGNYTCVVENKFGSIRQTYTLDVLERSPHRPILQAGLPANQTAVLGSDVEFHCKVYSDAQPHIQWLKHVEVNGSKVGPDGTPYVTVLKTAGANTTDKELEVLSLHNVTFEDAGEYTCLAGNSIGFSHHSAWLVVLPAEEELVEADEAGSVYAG
Method in brief: as §5

FGF-R4 ECD [4] = biological target: T1, FGF-R4 ECD; test: single concentration BLI of crude peptides; format: binding; details: crude T18 selection 1 (1:1:1) peptides, single concentration BLI (Table S4); read-out: KD (4)
Method in brief: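 BLI, streptavidin sensors loaded with biotinylated receptor ECD. Single-point: ~1 μM crude peptide, PBS pH7.4/0.05% Tween-20/0.01% BSA; association then dissociation in buffer. KD corrected for UPLC-CAD-determined concentration.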

FGF-R1C ECD [5] = biological target: T2, FGF-R1C ECD; test: biochemical
Method: as §1, §2, §3, §4

FGF-R3C ECD [6] = biological target: T3, FGF-R3C ECD; test: biochemical
Method: as §1, §2, §3, §4

SMILES | Kd (FGF-R4 ECD [1]) [nM] | Kd (FGF-R1C ECD [2]) [nM] | Kd (FGF-R3C ECD [3]) [nM] | Kd (FGF-R4 ECD [4]) [nM] | Kd (FGF-R1C ECD [5]) [nM] | Kd (FGF-R3C ECD [6]) [nM] | R4 KD (nM) (FGF-R4 ECD [1])
CSCC[C@H](NC(C)=O)C(=O)N[C@H]1CSSC[C@@H](C(=O)NCC(=O)N[C@@H](CO)C(=O)NCC(=O)N[C@@H](CO)C(=O)N[C@@H](CC(=O)O)C(=O)N[C@@H](Cc2ccc(O)cc2)C(=O)N[C@@H](CCCCN)C(=O)N[C@@H](CC(=O)O)C(=O)N[C@@H](CC(=O)O)C(=O)N[C@@H](CC(=O)O)C(=O)N[C@@H](CC(=O)O)C(=O)N[C@@H](CCCCN)C(N)=O)NC(=O)[C@H](Cc2c[nH]cn2)NC(=O)[C@H](CCCNC(=N)N)NC(=O)[C@H](CC(C)C)NC(=O)[C@H](C(C)C)NC(=O)[C@H](CCCCN)NC(=O)[C@H](Cc2ccc(O)cc2)NC(=O)[C@H](CC(C)C)NC(=O)[C@H](CC(C)C)NC(=O)[C@H](C(C)C)NC(=O)[C@H](CC(N)=O)NC1=O [4.11] | 543 | > 10000 | > 10000 | 11 | > 1000 | 115 | 
CSCC[C@H](NC(C)=O)C(=O)N[C@H]1CSSC[C@@H](C(=O)NCC(=O)N[C@@H](CO)C(=O)NCC(=O)N[C@@H](CO)C(=O)N[C@@H](CC(=O)O)C(=O)N[C@@H](Cc2ccc(O)cc2)C(=O)N[C@@H](CCCCN)C(=O)N[C@@H](CC(=O)O)C(=O)N[C@@H](CC(=O)O)C(=O)N[C@@H](CC(=O)O)C(=O)N[C@@H](CC(=O)O)C(=O)N[C@@H](CCCCN)C(N)=O)NC(=O)[C@H](C(C)C)NC(=O)[C@H](Cc2c[nH]c3ccccc23)NC(=O)[C@H](Cc2c[nH]c3ccccc23)NC(=O)[C@H](CC(C)C)NC(=O)[C@H](CCCCN)NC(=O)[C@H](Cc2c[nH]c3ccccc23)NC(=O)[C@H](CCCNC(=N)N)NC(=O)[C@H](Cc2ccc(O)cc2)NC(=O)[C@H](C)NC(=O)[C@H](CC(=O)O)NC(=O)[C@H](CO)NC(=O)[C@H](CCC(=O)O)NC1=O [4.12] | 15 | 1570 | > 10000 | 10 | > 1000 | > 1000 | 
CSCC[C@H](NC(C)=O)C(=O)N[C@H]1CSSC[C@@H](C(=O)NCC(=O)N[C@@H](CO)C(=O)NCC(=O)N[C@@H](CO)C(=O)N[C@@H](CC(=O)O)C(=O)N[C@@H](Cc2ccc(O)cc2)C(=O)N[C@@H](CCCCN)C(=O)N[C@@H](CC(=O)O)C(=O)N[C@@H](CC(=O)O)C(=O)N[C@@H](CC(=O)O)C(=O)N[C@@H](CC(=O)O)C(=O)N[C@@H](CCCCN)C(N)=O)NC(=O)[C@H](CC(C)C)NC(=O)[C@H](CCC(N)=O)NC(=O)[C@H](Cc2c[nH]c3ccccc23)NC(=O)[C@H](CCCCN)NC(=O)[C@H](CCC(=O)O)NC(=O)[C@H](Cc2c[nH]c3ccccc23)NC(=O)[C@H](CC(N)=O)NC(=O)[C@H](Cc2ccc(O)cc2)NC(=O)[C@H](Cc2ccccc2)NC(=O)[C@H](CCCNC(=N)N)NC(=O)[C@H]([C@@H](C)O)NC(=O)[C@H](Cc2ccc(O)cc2)NC1=O [4.13] | > 1000 | 17 | > 10000 | > 10000 | > 1000 | > 1000 | 
CC[C@H](C)[C@@H]1NC(=O)[C@H](CCCCN)NC(=O)[C@H](CO)NC(=O)[C@H](CC(N)=O)NC(=O)[C@@H]2CCCN2C(=O)[C@@H]2CCCN2C(=O)[C@H](CCCNC(=N)N)NC(=O)[C@H](Cc2c[nH]cn2)NC(=O)[C@H](Cc2ccc(O)cc2)NC(=O)[C@@H](NC(=O)[C@H](CCSC)NC(C)=O)CSSC[C@@H](C(=O)NCC(=O)N[C@@H](CO)C(=O)NCC(=O)N[C@@H](CO)C(=O)N[C@@H](CC(=O)O)C(=O)N[C@@H](Cc2ccc(O)cc2)C(=O)N[C@@H](CCCCN)C(=O)N[C@@H](CC(=O)O)C(=O)N[C@@H](CC(=O)O)C(=O)N[C@@H](CC(=O)O)C(=O)N[C@@H](CC(=O)O)C(=O)N[C@@H](CCCCN)C(N)=O)NC(=O)[C@H](CCCCN)NC(=O)[C@H](CCCNC(=N)N)NC(=O)[C@H](Cc2c[nH]c3ccccc23)NC1=O [4.14] | 524 | > 10000 | > 10000 | 214 | > 1000 | > 1000 | 
CSCC[C@H](NC(C)=O)C(=O)N[C@H]1CSSC[C@@H](C(=O)NCC(=O)N[C@@H](CO)C(=O)NCC(=O)N[C@@H](CO)C(=O)N[C@@H](CC(=O)O)C(=O)N[C@@H](Cc2ccc(O)cc2)C(=O)N[C@@H](CCCCN)C(=O)N[C@@H](CC(=O)O)C(=O)N[C@@H](CC(=O)O)C(=O)N[C@@H](CC(=O)O)C(=O)N[C@@H](CC(=O)O)C(=O)N[C@@H](CCCCN)C(N)=O)NC(=O)[C@H]([C@@H](C)O)NC(=O)[C@H](C(C)C)NC(=O)[C@H](CC(C)C)NC(=O)[C@H](CC(C)C)NC(=O)[C@H](Cc2c[nH]c3ccccc23)NC(=O)[C@H](Cc2ccc(O)cc2)NC(=O)[C@H](CC(C)C)NC(=O)[C@H](C(C)C)NC(=O)[C@H](CCC(=O)O)NC(=O)[C@H](CCCNC(=N)N)NC(=O)[C@H](CCC(=O)O)NC1=O [4.15] | 378 | 48 | > 10000 | 128 | > 1000 | > 1000 | 
CSCC[C@H](NC(C)=O)C(=O)N[C@H]1CSSC[C@@H](C(=O)NCC(=O)N[C@@H](CO)C(=O)NCC(=O)N[C@@H](CO)C(=O)N[C@@H](CC(=O)O)C(=O)N[C@@H](Cc2ccc(O)cc2)C(=O)N[C@@H](CCCCN)C(=O)N[C@@H](CC(=O)O)C(=O)N[C@@H](CC(=O)O)C(=O)N[C@@H](CC(=O)O)C(=O)N[C@@H](CC(=O)O)C(=O)N[C@@H](CCCCN)C(N)=O)NC(=O)[C@H](C)NC(=O)[C@H](Cc2c[nH]c3ccccc23)NC(=O)[C@H](Cc2ccc(O)cc2)NC(=O)[C@H](CCCNC(=N)N)NC(=O)[C@H](Cc2ccc(O)cc2)NC(=O)[C@H](CO)NC(=O)[C@H](Cc2ccc(O)cc2)NC(=O)[C@H](Cc2ccccc2)NC(=O)[C@H](CC(=O)O)NC(=O)[C@H](CC(=O)O)NC(=O)[C@H](CC(C)C)NC(=O)[C@H](Cc2ccc(O)cc2)NC1=O [4.16] | > 1000 | 54 | > 10000 | > 10000 | 15 | 37 | no observable binding
CSCC[C@H](NC(C)=O)C(=O)N[C@H]1CSSC[C@@H](C(=O)NCC(=O)N[C@@H](CO)C(=O)NCC(=O)N[C@@H](CO)C(=O)N[C@@H](CC(=O)O)C(=O)N[C@@H](Cc2ccc(O)cc2)C(=O)N[C@@H](CCCCN)C(=O)N[C@@H](CC(=O)O)C(=O)N[C@@H](CC(=O)O)C(=O)N[C@@H](CC(=O)O)C(=O)N[C@@H](CC(=O)O)C(=O)N[C@@H](CCCCN)C(N)=O)NC(=O)[C@H](Cc2c[nH]cn2)NC(=O)[C@H](CCCNC(=N)N)NC(=O)[C@H](CC(C)C)NC(=O)[C@H](CC(=O)O)NC(=O)[C@H](CCCCN)NC(=O)[C@H](Cc2ccc(O)cc2)NC(=O)[C@H](CC(C)C)NC(=O)[C@H](CC(C)C)NC(=O)[C@H](C(C)C)NC(=O)[C@H](CC(N)=O)NC1=O [4.17] | > 1000 | > 10000 | > 10000 | > 10000 | > 1000 | > 1000 | 
